Tests used:
[1] = test system: Balb/c splenic B cells; assay: B cell activation and proliferation assay (Alamar Blue); format: cell-based, mouse; settings: Mus musculus, B-cell
How it was run: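 Purified Balb/c splenic B cells, 50,000/well, pretreated with compound 30 min (0.2% DMSO), then stimulated with 10 ug/ml LPS or 5 ug/ml anti-IgM F(ab′)2 plus 2 ng/ml IL4 (cocktail concentrations) for 72 h at 37 °C. Alamar Blue 5 h, fluorescence 560/590 nm; IC50/EC50 calculated.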

[2] = molecular target: p110δ/p85α (Homo sapiens (Human), UniProt O00329); assay: PI3K δ inhibition assay (TLC lipid kinase or HTRF); format: biochemical
Sequence of p110δ/p85α (O00329 whole entry): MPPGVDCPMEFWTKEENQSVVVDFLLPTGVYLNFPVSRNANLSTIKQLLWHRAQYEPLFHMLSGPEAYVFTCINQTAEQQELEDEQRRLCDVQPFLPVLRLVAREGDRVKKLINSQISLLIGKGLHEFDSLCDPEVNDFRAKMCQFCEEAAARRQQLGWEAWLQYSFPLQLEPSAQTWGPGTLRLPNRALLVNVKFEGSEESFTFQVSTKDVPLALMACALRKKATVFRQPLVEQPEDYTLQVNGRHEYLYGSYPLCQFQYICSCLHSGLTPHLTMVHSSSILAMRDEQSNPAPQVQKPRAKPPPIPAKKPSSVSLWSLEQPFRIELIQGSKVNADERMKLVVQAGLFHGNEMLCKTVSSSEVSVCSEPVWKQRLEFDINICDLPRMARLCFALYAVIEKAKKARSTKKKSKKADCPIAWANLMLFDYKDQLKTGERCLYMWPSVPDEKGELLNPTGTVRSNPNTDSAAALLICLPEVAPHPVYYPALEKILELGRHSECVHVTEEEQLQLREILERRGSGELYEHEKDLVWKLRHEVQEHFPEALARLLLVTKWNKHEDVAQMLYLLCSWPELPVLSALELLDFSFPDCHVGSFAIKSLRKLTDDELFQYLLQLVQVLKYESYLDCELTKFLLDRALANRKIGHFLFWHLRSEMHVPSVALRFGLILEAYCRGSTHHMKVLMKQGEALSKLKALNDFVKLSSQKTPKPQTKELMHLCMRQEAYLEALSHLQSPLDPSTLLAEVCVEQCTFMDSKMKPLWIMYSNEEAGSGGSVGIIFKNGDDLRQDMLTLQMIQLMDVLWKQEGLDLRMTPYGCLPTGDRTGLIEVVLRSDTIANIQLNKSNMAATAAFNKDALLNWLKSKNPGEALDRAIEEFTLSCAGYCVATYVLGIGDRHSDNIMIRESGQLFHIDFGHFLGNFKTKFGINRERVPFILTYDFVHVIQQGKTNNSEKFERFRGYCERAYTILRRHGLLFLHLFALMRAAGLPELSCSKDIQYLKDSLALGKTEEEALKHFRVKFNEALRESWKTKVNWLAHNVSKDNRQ
Sequence of p110δ/p85α (P27986 whole entry partner): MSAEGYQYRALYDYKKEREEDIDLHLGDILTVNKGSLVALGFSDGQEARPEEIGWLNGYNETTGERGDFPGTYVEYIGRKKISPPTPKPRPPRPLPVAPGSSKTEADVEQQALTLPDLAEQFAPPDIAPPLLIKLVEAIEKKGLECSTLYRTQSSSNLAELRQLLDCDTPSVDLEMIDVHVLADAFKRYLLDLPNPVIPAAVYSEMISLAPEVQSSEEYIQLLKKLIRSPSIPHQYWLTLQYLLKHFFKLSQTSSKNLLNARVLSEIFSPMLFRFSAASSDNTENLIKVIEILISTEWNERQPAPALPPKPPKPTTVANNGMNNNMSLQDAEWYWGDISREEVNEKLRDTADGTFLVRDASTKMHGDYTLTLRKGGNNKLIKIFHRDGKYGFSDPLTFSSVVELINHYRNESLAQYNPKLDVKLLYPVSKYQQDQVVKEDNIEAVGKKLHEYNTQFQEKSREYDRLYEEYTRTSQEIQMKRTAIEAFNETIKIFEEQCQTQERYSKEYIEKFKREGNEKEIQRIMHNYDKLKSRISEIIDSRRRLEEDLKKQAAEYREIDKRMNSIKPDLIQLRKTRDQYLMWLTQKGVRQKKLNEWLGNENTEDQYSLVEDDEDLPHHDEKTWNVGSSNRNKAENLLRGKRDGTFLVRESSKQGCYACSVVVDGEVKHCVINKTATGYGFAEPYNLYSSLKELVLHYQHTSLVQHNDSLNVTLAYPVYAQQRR
How it was run: (§1)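 IC50 from TLC lipid kinase assay (25 mM HEPES pH 7.4, 10 mM MgCl2, 100 μg/ml phosphatidylinositol, 10 or 100 μM γ-32P-ATP, 5 min RT, phosphorimager) at 10–12 two-fold dilutions, or HTRF (10 μM PIP2, 10 μM ATP, 1 h RT) measuring PIP3 by TR-FRET; 2% DMSO final.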

[3] = molecular target: p110α/p85α (Homo sapiens (Human), UniProt P42336); assay: PI3K α inhibition assay (TLC lipid kinase or HTRF); format: biochemical
Sequence of p110α/p85α (P42336 whole entry): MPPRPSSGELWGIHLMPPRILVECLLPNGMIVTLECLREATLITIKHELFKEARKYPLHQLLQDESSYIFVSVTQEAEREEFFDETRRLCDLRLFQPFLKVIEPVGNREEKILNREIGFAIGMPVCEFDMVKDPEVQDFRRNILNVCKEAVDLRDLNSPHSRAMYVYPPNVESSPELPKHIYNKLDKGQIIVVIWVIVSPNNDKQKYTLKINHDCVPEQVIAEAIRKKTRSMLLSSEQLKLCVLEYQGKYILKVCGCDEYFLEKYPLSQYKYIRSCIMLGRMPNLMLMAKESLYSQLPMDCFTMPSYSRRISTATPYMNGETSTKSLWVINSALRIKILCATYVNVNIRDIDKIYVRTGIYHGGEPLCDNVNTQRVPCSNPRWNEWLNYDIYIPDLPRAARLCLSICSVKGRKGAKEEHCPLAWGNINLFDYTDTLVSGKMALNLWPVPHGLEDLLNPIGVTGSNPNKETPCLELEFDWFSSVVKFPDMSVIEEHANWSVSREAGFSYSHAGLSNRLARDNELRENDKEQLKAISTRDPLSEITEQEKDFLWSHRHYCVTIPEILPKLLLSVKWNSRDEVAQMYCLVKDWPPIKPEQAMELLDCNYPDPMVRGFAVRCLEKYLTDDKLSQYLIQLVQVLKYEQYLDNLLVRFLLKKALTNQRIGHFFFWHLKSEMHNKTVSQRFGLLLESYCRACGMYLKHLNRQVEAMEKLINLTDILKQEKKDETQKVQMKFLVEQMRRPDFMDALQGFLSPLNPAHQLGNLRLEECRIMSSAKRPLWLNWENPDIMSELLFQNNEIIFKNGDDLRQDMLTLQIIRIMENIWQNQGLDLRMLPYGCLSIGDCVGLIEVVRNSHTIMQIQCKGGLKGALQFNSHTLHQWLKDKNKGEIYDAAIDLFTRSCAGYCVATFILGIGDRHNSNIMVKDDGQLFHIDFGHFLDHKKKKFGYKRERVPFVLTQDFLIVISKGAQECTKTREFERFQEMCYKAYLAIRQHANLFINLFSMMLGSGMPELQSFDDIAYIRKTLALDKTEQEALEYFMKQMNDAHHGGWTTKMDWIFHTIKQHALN
Sequence of p110α/p85α (P27986 whole entry partner): as the sequence (P27986 whole entry partner) above
How it was run: as §1

[4] = molecular target: p110γ (Homo sapiens (Human), UniProt P48736); assay: PI3K γ inhibition assay (TLC lipid kinase or HTRF); format: biochemical
Sequence of p110γ (P48736 whole entry): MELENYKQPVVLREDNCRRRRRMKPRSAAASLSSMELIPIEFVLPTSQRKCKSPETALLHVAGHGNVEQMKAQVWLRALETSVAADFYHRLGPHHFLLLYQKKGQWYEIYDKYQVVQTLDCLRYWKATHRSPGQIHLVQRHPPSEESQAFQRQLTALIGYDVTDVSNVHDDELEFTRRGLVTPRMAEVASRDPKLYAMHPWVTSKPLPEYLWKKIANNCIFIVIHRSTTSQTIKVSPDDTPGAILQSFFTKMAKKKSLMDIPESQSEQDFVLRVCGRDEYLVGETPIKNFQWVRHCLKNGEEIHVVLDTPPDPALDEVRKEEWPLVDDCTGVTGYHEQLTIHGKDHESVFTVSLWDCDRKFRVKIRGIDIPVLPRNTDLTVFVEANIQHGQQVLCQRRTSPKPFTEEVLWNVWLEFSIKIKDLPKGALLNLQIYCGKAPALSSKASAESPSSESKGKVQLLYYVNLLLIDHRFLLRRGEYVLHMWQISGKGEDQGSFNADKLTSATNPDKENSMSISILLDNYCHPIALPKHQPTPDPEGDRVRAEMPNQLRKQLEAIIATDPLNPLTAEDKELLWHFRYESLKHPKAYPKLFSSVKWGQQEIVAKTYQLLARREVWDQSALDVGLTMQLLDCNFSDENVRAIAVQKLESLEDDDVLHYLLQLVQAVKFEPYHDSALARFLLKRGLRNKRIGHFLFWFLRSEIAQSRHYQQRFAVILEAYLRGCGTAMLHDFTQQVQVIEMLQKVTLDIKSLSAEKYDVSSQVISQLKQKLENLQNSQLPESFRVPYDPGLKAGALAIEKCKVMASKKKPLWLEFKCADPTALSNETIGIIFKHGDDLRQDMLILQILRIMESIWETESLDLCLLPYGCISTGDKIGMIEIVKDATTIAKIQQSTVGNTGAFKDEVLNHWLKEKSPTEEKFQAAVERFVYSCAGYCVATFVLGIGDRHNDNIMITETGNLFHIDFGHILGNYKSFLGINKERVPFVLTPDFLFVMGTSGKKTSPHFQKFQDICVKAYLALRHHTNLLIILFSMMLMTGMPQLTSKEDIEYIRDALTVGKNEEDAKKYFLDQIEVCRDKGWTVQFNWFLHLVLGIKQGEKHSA
How it was run: as §1

[5] = molecular target: p110β/p85α (Homo sapiens, UniProt P42338); assay: PI3K β inhibition assay (TLC lipid kinase or HTRF); format: biochemical; settings: read-out: PI3K β IC50
Sequence of p110β/p85α (P42338 whole entry, looked up): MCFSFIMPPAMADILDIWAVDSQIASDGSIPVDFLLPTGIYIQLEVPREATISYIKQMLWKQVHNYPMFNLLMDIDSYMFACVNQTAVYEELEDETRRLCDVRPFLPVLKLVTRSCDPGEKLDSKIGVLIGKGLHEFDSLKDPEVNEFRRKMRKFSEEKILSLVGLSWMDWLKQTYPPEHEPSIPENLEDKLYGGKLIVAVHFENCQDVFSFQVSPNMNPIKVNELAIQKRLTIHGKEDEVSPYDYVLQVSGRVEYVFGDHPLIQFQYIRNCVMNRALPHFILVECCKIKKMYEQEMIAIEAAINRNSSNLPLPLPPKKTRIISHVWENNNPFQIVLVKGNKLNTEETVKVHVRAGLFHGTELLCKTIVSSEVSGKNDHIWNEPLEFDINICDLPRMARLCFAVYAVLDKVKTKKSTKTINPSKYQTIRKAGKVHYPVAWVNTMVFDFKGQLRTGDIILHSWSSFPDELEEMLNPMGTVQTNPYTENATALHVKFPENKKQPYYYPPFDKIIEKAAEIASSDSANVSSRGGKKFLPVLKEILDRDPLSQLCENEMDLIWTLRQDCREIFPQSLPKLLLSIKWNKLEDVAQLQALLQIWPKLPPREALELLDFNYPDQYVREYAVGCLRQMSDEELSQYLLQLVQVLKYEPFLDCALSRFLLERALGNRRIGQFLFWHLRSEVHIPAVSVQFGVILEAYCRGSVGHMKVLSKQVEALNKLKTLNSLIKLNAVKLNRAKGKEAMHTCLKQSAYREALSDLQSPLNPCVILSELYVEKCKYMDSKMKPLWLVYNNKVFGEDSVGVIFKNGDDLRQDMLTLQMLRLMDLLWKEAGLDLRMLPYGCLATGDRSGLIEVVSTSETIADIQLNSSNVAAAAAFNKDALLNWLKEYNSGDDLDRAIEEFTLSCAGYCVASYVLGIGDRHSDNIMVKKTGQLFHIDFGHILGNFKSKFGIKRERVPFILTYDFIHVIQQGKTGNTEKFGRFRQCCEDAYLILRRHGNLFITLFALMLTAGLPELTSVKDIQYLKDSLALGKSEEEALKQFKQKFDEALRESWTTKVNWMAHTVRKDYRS
How it was run: as §1

SMILES | IC50 [2] [nM] | IC50 [3] [nM] | IC50 [4] [nM] | IC50 [5] [nM] | EC50 [1] [nM]
CCC(c1cc2ccccc2nc1N1CCCC1)n1nc(-c2cccc(O)c2)c2c(N)ncnc21 (centres unmarked) [Compound 39] | < 100 | > 1000 | > 1000 | > 1000 | < 100
Nc1nc2ccc(-c3nn(Cc4cc5ccccc5nc4-c4ccccc4)c4ncnc(N)c34)cc2s1 [Compound 94] | < 100 | > 1000 | < 100 | > 1000 | 100 to 1000
Cc1ccccc1-c1nc2ccccc2nc1Cn1nc(-c2cc(O)cc(F)c2)c2c(N)ncnc21 [Compound 107] | < 100 | > 1000 | > 1000 | > 1000 | < 100
Nc1ncnc2c1c(-c1cc(O)cc(F)c1)nn2Cc1cc2c(nc1-c1ccccc1F)CCC2 [Compound 101] | 100 to 1000 | > 1000 | > 1000 | > 1000 | 100 to 1000
CC(=O)Nc1nc2ccc(-c3nn(Cc4cc5ccccc5nc4-c4ccccc4)c4ncnc(N)c34)cc2s1 [Compound 92] | < 100 | > 1000 | < 100 | > 1000 | < 100
CC(c1cc2ccccc2nc1N1CCN(C)CC1)n1nc(-c2cccc(O)c2)c2c(N)ncnc21 (centres unmarked) [Compound 72] | < 100 | > 1000 | > 1000 | 100 to 1000 | < 100
CC(=O)Nc1nc2ccc(-c3nn(Cc4cc5ccccc5nc4-c4ccccc4F)c4ncnc(N)c34)cc2s1 [Compound 83] | < 100 | > 1000 | < 100 | > 1000 | < 100
Cc1ccccc1-c1nc2ccccc2cc1Cn1nc(-c2ccc3cc(N)sc3c2)c2c(N)ncnc21 [Compound 86] | < 100 | > 1000 | < 100 | > 1000 | 100 to 1000
Nc1ncnc2c1c(-c1cc(O)cc(F)c1)nn2Cc1cc2ccccc2nc1N1CCCC1 [Compound 2] | < 100 | > 1000 | < 100 | 100 to 1000 | < 100
CC(c1cc2ccccc2nc1-c1ccccc1)n1nc(-c2cccc(O)c2)c2c(N)ncnc21 (centres unmarked) [Compound 59] | < 100 | > 1000 | 100 to 1000 | > 1000 | < 100
Nc1nc2ccc(-c3nn(Cc4cc5ccccc5nc4N4CCOCC4)c4ncnc(N)c34)cc2s1 [Compound 129] | < 100 | < 100 | < 100 | 100 to 1000 | < 100
Nc1nc2ccc(-c3nn(Cc4cc5ccccc5nc4-c4ccccc4F)c4ncnc(N)c34)cc2s1 [Compound 85] | < 100 | 100 to 1000 | < 100 | > 1000 | < 100
CN1CCN(c2nc3ccccc3cc2Cn2nc(-c3cnc4[nH]ccc4c3)c3c(N)ncnc32)CC1 [Compound 74] | < 100 | > 1000 | > 1000 | 100 to 1000 | < 100
CC(C)N(C)c1nc2ccccc2cc1Cn1nc(-c2cc(O)cc(F)c2)c2c(N)ncnc21 [Compound 52] | < 100 | 100 to 1000 | 100 to 1000 | 100 to 1000 | < 100
CC(c1cc2ccccc2nc1-c1ccccc1)n1nc(C#C[C@@H](C)O)c2c(N)ncnc21 (some centres unmarked) [Compound 71] | < 100 | > 1000 | > 1000 | > 1000 | 100 to 1000
Nc1ncnc2c1c(-c1cccc(O)c1)nn2Cc1cc2ccccc2nc1N1CCOCC1 [Compound 64] | < 100 | > 1000 | 100 to 1000 | > 1000 | < 100
Nc1ncnc2c1c(-c1cc(O)cc(F)c1)nn2Cc1cc2ccccc2nc1Cl [Compound 54] | < 100 | > 1000 | 100 to 1000 | > 1000 | < 100
Cc1ccccc1-c1nc2ccccc2cc1Cn1nc(-c2cccc(O)c2)c2c(N)ncnc21 [Compound 5] | < 100 | > 1000 | 100 to 1000 | > 1000 | 100 to 1000
Cc1ccccc1-c1nc2ccccc2cc1Cn1nc(-c2cc(O)cc(F)c2)c2c(N)ncnc21 [Compound 4] | < 100 | > 1000 | < 100 | > 1000 | < 100
CN1CCN(c2nc3ccccc3cc2Cn2nc(-c3cccc(O)c3)c3c(N)ncnc32)CC1 [Compound 43] | < 100 | > 1000 | > 1000 | 100 to 1000 | 100 to 1000

More lines, main results first:

IC50 [2] [nM] | IC50 [3] [nM] | IC50 [4] [nM] | IC50 [5] [nM] | SMILES | EC50 [1] [nM]
< 100 | > 1000 | 100 to 1000 | > 1000 | Nc1ncnc2c1c(-c1cn[nH]c1)nn2Cc1cc2ccccc2nc1-c1ccccc1 [Compound 180] | 100 to 1000
< 100 | 100 to 1000 | < 100 | < 100 | CN1CCN(c2nc3ccccc3nc2Cn2nc(-c3ccc4nc(N)sc4c3)c3c(N)ncnc32)CC1 [Compound 199] | < 100
< 100 | < 100 | < 100 | 100 to 1000 | Nc1nc2ccc(-c3nn(Cc4cc5ccccc5nc4CCN4CCCC4)c4ncnc(N)c34)cc2s1 [Compound 167] | < 100
< 100 | 100 to 1000 | < 100 | > 1000 | Nc1ncc2cc(-c3nn(Cc4cc5ccccc5nc4-c4ccccc4F)c4ncnc(N)c34)ccc2n1 [Compound 135] | < 100
< 100 | < 100 | < 100 | > 1000 | CC(=O)Nc1nc2ccc(-c3nn(Cc4cc5ccccc5nc4N4CCCC4)c4ncnc(N)c34)cc2s1 [Compound 195] | < 100
< 100 | > 1000 | 100 to 1000 | > 1000 | CC(C)Oc1nc2ccccc2cc1Cn1nc(-c2cc(O)cc(F)c2)c2c(N)ncnc21 [Compound 156] | 100 to 1000
< 100 | > 1000 | < 100 | > 1000 | Nc1ncnc2ccc(-c3nn(Cc4cc5ccccc5nc4-c4ccccc4F)c4ncnc(N)c34)cc12 [Compound 138] | 100 to 1000
< 100 | 100 to 1000 | < 100 | > 1000 | Nc1ccc2cc(-c3nn(Cc4cc5ccccc5nc4-c4ccccc4)c4ncnc(N)c34)ccc2n1 [Compound 144] | < 100
< 100 | > 1000 | < 100 | > 1000 | Nc1ncnc2c1c(/C=C1/SC(=O)NC1=O)nn2Cc1cc2ccccc2nc1-c1ccccc1F [Compound 192] | 100 to 1000
< 100 | > 1000 | < 100 | > 1000 | Cc1ccccc1-c1nc2ccccc2cc1Cn1nc(-c2ccc3oc(N)nc3c2)c2c(N)ncnc21 [Compound 133] | 100 to 1000
< 100 | > 1000 | < 100 | > 1000 | Nc1ncnc2ccc(-c3nn(Cc4cc5ccccc5nc4-c4ccccc4)c4ncnc(N)c34)cc12 [Compound 146] | 100 to 1000
